The source of these data is ChEMBL document CHEMBL4610032, “Inhibitory effects of triarylpyrazole derivatives on LPS-induced nitric oxide and PGE2 productions in murine RAW 264.7 macrophages” (Bioorg Med Chem Lett, 2020).

For orientation: inhibition means the change of the read-out against control, counted positive when it falls. One may read the IC50 as the concentration that gives 50% inhibition.

Data set [1] can be described thus: Cytotoxicity against murine RAW264.7 cells assessed as cell viability at 10 uM relative to control. The conditions noted are these: mouse, read-out: Activity. It is filed as cell-based.
The subject of data set [2] is RAW264.7. Nature of the data set: Antiinflammatory activity against murine RAW264.7 cells assessed as inhibition of LPS-induced NO production at 10 uM preincubated for 1 hr followed by LPS stimulation and measured after 24 hrs by Griess assay relative to control. The class given is functional. The conditions noted are these: Mus musculus. In general terms: Griess reagent forms a coloured azo dye with nitrite.

In data set [3] the test system is RAW264.7. The data set is described as follows: Antiinflammatory activity against murine RAW264.7 cells assessed as inhibition of LPS-induced PGE2 production at 10 uM preincubated for 1 hr followed by LPS stimulation and measured after 24 hrs by EIA relative to control. The conditions noted are these: Mus musculus. The class given is functional.
Data set [4] relates to RAW264.7. Nature of the data set: Antiinflammatory activity against murine RAW264.7 cells assessed as inhibition of LPS-induced PGE2 production preincubated for 1 hr followed by LPS stimulation and measured after 24 hrs by EIA. It is filed as functional, cell-based. The conditions noted are these: Mus musculus.
Data set [5] concerns RAW264.7. Nature of the data set: Antiinflammatory activity against murine RAW264.7 cells assessed as reduction in LPS-stimulated COX2 mRNA expression pretreated for 1 hr followed by LPS addition and measured after 4 hrs by qRT-PCR analysis. The class given is functional, cell-based. As to conditions: Mus musculus. A general note: Quantitative PCR measures a nucleic acid by following its amplification.

In data set [6] the test system is RAW264.7. Nature of the data set: Antiinflammatory activity against murine RAW264.7 cells assessed as downregulation of LPS-stimulated COX2 protein expression pretreated for 1 hr followed by LPS addition and measured after 24 hrs by Western blot analysis. The class given is functional, cell-based. As to conditions: Mus musculus.
For data set [7], the system named is RAW264.7. The data set is described as follows: Antiinflammatory activity against murine RAW264.7 cells assessed as inhibition of LPS-induced NO production at 40 uM preincubated for 1 hr followed by LPS stimulation and measured after 24 hrs by Griess assay relative to control. The class given is functional. The conditions noted are these: Mus musculus.
The subject of data set [8] is RAW264.7. Nature of the data set: Antiinflammatory activity against murine RAW264.7 cells assessed as inhibition of LPS-induced PGE2 production at 10 nM preincubated for 1 hr followed by LPS stimulation and measured after 24 hrs by EIA relative to control. It is filed as functional. The conditions noted are these: Mus musculus.

For the compound `COc1cccc(-c2nn(-c3ccccc3)cc2-c2ccnc(NCCNC(=O)c3ccccc3)c2)c1`, the viability at 10 µM in data set [1] is 132%. Moreover, the inhibition at 10 µM with RAW264.7 [2] is 12.8%; with RAW264.7 [3], 36.2%.
Take `O=C(NCCNc1cc(-c2cn(-c3ccccc3)nc2-c2cccc(O)c2)ccn1)c1cccc(C(F)(F)F)c1`: the viability at 10 µM in data set [1] came to 135%. The results for the inhibition at 10 µM with RAW264.7 [2] and in the data set with RAW264.7 [3] were 18.6% and 12.2%, respectively.
Turning to `O=C(NCCCNc1cc(-c2cn(-c3ccccc3)nc2-c2cccc(O)c2)ccn1)c1ccccc1`, in data set [1], the viability at 10 µM stood at 145%. Further, the inhibition at 10 µM in the data set on RAW264.7 [2] was determined as 2.1%; in the data set on RAW264.7 [3], 12.6%.
On to `O=C(NCCNc1cc(-c2cn(-c3ccccc3)nc2-c2cccc(O)c2)ccn1)c1ccc(F)cc1`, for which the viability at 10 µM in data set [1] was found to be 127%. Besides, the inhibition at 10 µM in the data set with RAW264.7 [2] is 20.4%; in the data set with RAW264.7 [3] it was -1.9%.
Consider `COc1cccc(-c2nn(-c3ccccc3)cc2-c2ccnc(NCCNC(=O)Nc3cccc(C(F)(F)F)c3)c2)c1`, for which the IC50 in the data set on RAW264.7 [4] was found to be 5.11 µM. Also, in data set [1], the viability at 10 µM was determined as 165%. Moreover, the inhibition at 10 µM in the data set on RAW264.7 [2] came to 26.1%; in the data set on RAW264.7 [3] it was 69.9%.
On to `COc1cccc(-c2nn(-c3ccccc3)cc2-c2ccnc(NCCNC(=O)Nc3ccc(Cl)c(Cl)c3)c2)c1`, for which the IC50 with RAW264.7 [4] stood at 4.51 µM. In data set [1], the viability at 10 µM is 129%. Besides, the results for the inhibition at 10 µM in the data set with RAW264.7 [2] and in the data set with RAW264.7 [3] were 22% and 76.1%, respectively.
Turning to `O=C(NCCCNc1cc(-c2cn(-c3ccccc3)nc2-c2cccc(O)c2)ccn1)c1ccc(O)cc1`, the viability at 10 µM in data set [1] worked out at 126%. Also, the inhibition at 10 µM stood at 39.7% with RAW264.7 [2] and 31.1% in the data set with RAW264.7 [3].
Take `COc1ccc(C(=O)NCCCNc2cc(-c3cn(-c4ccccc4)nc3-c3cccc(OC)c3)ccn2)cc1`: the inhibition entry in the data set with RAW264.7 [5] and in the data set with RAW264.7 [6] was “Dose-dependent effect” throughout. In the data set with RAW264.7 [4], the IC50 is 2.94 µM. The viability at 10 µM in data set [1] was 112%. The inhibition at 10 µM in the data set on RAW264.7 [2] is 48.8%; in the data set on RAW264.7 [3], 75.4%.
On to `O=C(NCCCNc1cc(-c2cn(-c3ccccc3)nc2-c2cccc(O)c2)ccn1)c1cccc(C(F)(F)F)c1`, for which the viability at 10 µM in data set [1] was found to be 123%. Further, the inhibition at 10 µM in the data set with RAW264.7 [3] is 11.6%.
Take `COc1cccc(-c2nn(-c3ccccc3)cc2-c2ccnc(NCCCNC(=O)Nc3ccc(Cl)c(Cl)c3)c2)c1`: in the data set on RAW264.7 [4], the half-inhibitory concentration (IC50) amounted to 4.21 µM. In data set [1], the viability at 10 µM is 121%. Further, the inhibition at 10 µM turned out to be 38.6% with RAW264.7 [2] and 77.1% in the data set with RAW264.7 [3]. The inhibition result in the data set on RAW264.7 [6] was “Dose-dependent effect”.
Take `COc1cccc(-c2nn(-c3ccccc3)cc2-c2ccnc(NCCNC(=O)c3cccc(C(F)(F)F)c3)c2)c1`: in data set [1], the viability at 10 µM is 125%. Moreover, the results for the inhibition at 10 µM with RAW264.7 [2] and in the data set on RAW264.7 [3] were 19.1% and 58.1%, respectively.
Turning to `COc1cccc(-c2nn(-c3ccccc3)cc2-c2ccnc(NCCNC(=O)Nc3ccccc3)c2)c1`, the viability at 10 µM in data set [1] was found to be 143%. Also, the inhibition at 10 µM with RAW264.7 [2] is 12.2%; in the data set on RAW264.7 [3] it was 53.9%.
For the compound `COc1cccc(-c2nn(-c3ccccc3)cc2-c2ccnc(NCCCNC(=O)c3cccc(C(F)(F)F)c3)c2)c1`, in the data set with RAW264.7 [4], the IC50 came out at 5.62 µM. In addition, in data set [1], the viability at 10 µM worked out at 115%. The results for the inhibition at 10 µM with RAW264.7 [2] and in the data set with RAW264.7 [3] were 28.8% and 73.8%, respectively.
With `O=C(NCCNc1cc(-c2cn(-c3ccccc3)nc2-c2cccc(O)c2)ccn1)c1ccc(O)cc1`, the viability at 10 µM in data set [1] came out at 124%. Moreover, the figures for the inhibition at 10 µM in the data set with RAW264.7 [2] and in the data set with RAW264.7 [3] were 34.5% and -56.4%, respectively.
With `O=C(NCCNc1cc(-c2cn(-c3ccccc3)nc2-c2cccc(O)c2)ccn1)c1ccccc1`, the viability at 10 µM in data set [1] was determined as 105%. Besides, the inhibition at 10 µM in the data set on RAW264.7 [2] was 12.2%; in the data set with RAW264.7 [3], 20.9%.
Turning to `COc1cccc(-c2nn(-c3ccccc3)cc2-c2ccnc(NCCCNC(=O)Nc3ccccc3)c2)c1`, the viability at 10 µM in data set [1] was determined as 143%. Further, the inhibition at 10 µM with RAW264.7 [2] is 22.2%; with RAW264.7 [3] it was 56.3%.
Regarding `COc1cccc(-c2nn(-c3ccccc3)cc2-c2ccnc(NCCNC(=O)c3ccc(F)cc3)c2)c1`, in data set [1], the viability at 10 µM was 136%. The inhibition at 10 µM with RAW264.7 [2] was 15.4%; with RAW264.7 [3], 47.9%.
For `COc1ccc(C(=O)NCCNc2cc(-c3cn(-c4ccccc4)nc3-c3cccc(OC)c3)ccn2)cc1`, the viability at 10 µM in data set [1] is 116%. The inhibition at 10 µM in the data set with RAW264.7 [2] is 12.3%; in the data set on RAW264.7 [3], 59.6%.
Consider `CC(=N)NCCCC[C@H](N)C(=O)O` [L-NIL], for which the inhibition at 40 µM with RAW264.7 [7] came out at 31.5%.
Consider `COc1cccc(-c2nn(-c3ccccc3)cc2-c2ccnc(NCCCNC(=O)c3ccccc3)c2)c1`, for which the viability at 10 µM in data set [1] is 118%. Further, the figures for the inhibition at 10 µM with RAW264.7 [2] and in the data set on RAW264.7 [3] were 18.7% and 6.1%, respectively.
On to `COc1cccc(-c2nn(-c3ccccc3)cc2-c2ccnc(NCCCNC(=O)Nc3cccc(C(F)(F)F)c3)c2)c1`, for which the viability at 10 µM in data set [1] amounted to 124%. Also, the inhibition at 10 µM in the data set with RAW264.7 [2] came out at 31.3%.
For the compound `O=C(NCCCNc1cc(-c2cn(-c3ccccc3)nc2-c2cccc(O)c2)ccn1)c1ccc(F)cc1`, the IC50 in the data set with RAW264.7 [4] stood at 7.06 µM. Also, in data set [1], the viability at 10 µM was 120%. Also, the inhibition at 10 µM in the data set with RAW264.7 [2] was 32.6%; in the data set on RAW264.7 [3], 63.1%.
In the case of `CS(=O)(=O)Nc1ccc([N+](=O)[O-])cc1OC1CCCCC1` [NS-398], the inhibition at 0.01 µM in the data set with RAW264.7 [8] was 59.5%.
For the compound `COc1cccc(-c2nn(-c3ccccc3)cc2-c2ccnc(NCCCNC(=O)c3ccc(F)cc3)c2)c1`, the viability at 10 µM in data set [1] was determined as 133%. The inhibition at 10 µM with RAW264.7 [2] stood at 18.6%; in the data set with RAW264.7 [3], 28.9%.
